# How the values were obtained:
# Igl-C = molecular target: T1, Igl-C (Entamoeba histolytica, UniProt Q964D2); test: competition with FITC-PNA on Caco-2 cells; type: cell-based; conditions: 60 mM sugar, 300 nM protein, on ice
# T1 construct: gene igl1; C-terminal segment, 486 aa (contains Igl-C0 to C3, ends at about residue 1,088), His-tagged, pET-19b, E. coli BL21 Star(DE3)pLysS
# Igl-C3 = molecular target: T2, Igl-C3 (Entamoeba histolytica, UniProt Q964D2); test: competition with FITC-PNA on Caco-2 cells; hemagglutination inhibition; type: cell-based; conditions: 60 mM sugar, 300 nM protein, on ice; also hemagglutination of human group O erythrocytes
# T2 construct: gene igl1; CRD-like region, residues 989-1,088 (100 aa), His-tagged, pET-19b, E. coli BL21 Star(DE3)pLysS
# T2 sequence (Q964D2 entry or part of it): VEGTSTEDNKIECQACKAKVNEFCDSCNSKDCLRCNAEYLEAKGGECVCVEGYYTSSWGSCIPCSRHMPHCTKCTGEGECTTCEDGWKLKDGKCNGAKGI
# T1 sequence (Q964D2 entry or part of it): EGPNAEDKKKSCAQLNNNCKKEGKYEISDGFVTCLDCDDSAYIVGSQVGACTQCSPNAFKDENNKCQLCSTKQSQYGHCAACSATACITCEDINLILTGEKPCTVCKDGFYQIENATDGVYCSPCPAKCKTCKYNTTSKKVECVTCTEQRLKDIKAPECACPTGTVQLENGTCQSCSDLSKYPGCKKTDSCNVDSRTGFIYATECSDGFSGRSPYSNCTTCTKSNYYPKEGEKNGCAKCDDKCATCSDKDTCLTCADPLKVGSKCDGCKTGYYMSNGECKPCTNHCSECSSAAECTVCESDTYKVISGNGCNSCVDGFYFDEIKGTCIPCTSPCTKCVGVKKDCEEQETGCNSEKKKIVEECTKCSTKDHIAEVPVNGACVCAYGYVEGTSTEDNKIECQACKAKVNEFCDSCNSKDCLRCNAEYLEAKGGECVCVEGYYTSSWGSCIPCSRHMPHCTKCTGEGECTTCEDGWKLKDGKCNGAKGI
SMILES,competition with FITC-PNA on Caco-2 cells (Igl-C),competition with FITC-PNA on Caco-2 cells; hemagglutination inhibition (Igl-C3)
"CC(=O)N[C@H]1C(O)O[C@H](CO)[C@H](O)[C@@H]1O (stereo partly drawn) [GalNAc, N-acetyl-D-galactosamine]",this competitive process could in turn be weakened by the addition of Gal and GalNAc,"only Igl-C3 exhibited obvious hemagglutinating activity, which could be inhibited by Gal/GalNAc"
"OC[C@H]1OC(O)[C@H](O)[C@@H](O)[C@H]1O (stereo partly shown) [Gal, galactose]",this competitive process could in turn be weakened by the addition of Gal and GalNAc,"only Igl-C3 exhibited obvious hemagglutinating activity, which could be inhibited by Gal/GalNAc"

# From publication PMC11537071, “Identification and characterization of a carbohydrate recognition domain-like region in Entamoeba histolytica Gal/GalNAc lectin intermediate subunit” (Microbiology Spectrum, 2024)
